Data from US20080299587A1, “METHODS OF MEASURING INHIBITION OF PLATELET AGGREGATION BY THROMBIN RECEPTOR ANTAGONISTS” (priority 2007, published 2008).
Like-named read-outs stand apart in the source and are kept apart here.

Assays:
[1] = system: platelets in whole blood activated by PAR-1 thrombin receptor activating peptide (TRAP-1); assay: VERIFYNOW IIb/IIIa Assay, dose-dependent platelet inhibition with TRAP-1 as platelet activator; type: cell-based, human; conditions: TRAP-1 3.7 μM; for % Inhibition, Average: Average of four human donors; for % Inhibition (platelet inhibition relative to baseline): whole blood, 30 min 37°C
Text: The VERIFYNOW™ System instrument is a turbidometric based optical detection system that measures platelet induced aggregation as an increase in light transmittance. The system includes an analyzer, disposable cartridge and controls. The cartridge contains reagents based on microparticle agglutination technology. The quality control system includes an electronic control, two levels of assayed “wet” controls (WQC), an in-cartridge humidity sensor, an in-packaging temperature indicator, and a test for concurrence of two assay channels. […] For use in the present methods the test cartridge of the system contains a lyophilized preparation comprising particles with passively bound GPIIb/IIIa receptor ligand, a thrombin receptor activator, and buffer. The patient sample is usually citrated whole blood, which is automatically dispensed from the blood collection tube into the cartridge by the analyzer, with no blood handling required by the user. The interaction is monitored by the infrared absorbency characteristics of the particles. As the particles interact with the platelets, the agglutination of the particles is measured through the optical system of the VERIFYNOW™ instrument. The agglutination is detected as an increase in the transmission of infrared light through the sample.
An experiment was conducted to determine dose-dependent platelet inhibition by the PAR-1 antagonist E5555 (Eisai Co., Ltd.) using the VERIFYNOW™ IIb/IIIa Assay (Accumetrics, Inc., San Diego, Calif.) and PAR-1 thrombin receptor activating peptide (TRAP-1) as the platelet activator.
Dose response testing was performed with TRAP-1 at 3.7 μM. E5555 was used at final concentrations of 30 ng/ml, 10 ng/ml, 5.0 ng/ml and 1.0 ng/ml. 20 μL of each stock solution was spiked into 2.0 ml of whole blood (1:100 dilution) and mixed carefully to prevent hemolysis. After mixing, the blood samples were incubated for 30 min at 37° C. prior to platelet inhibition test.
Blood samples from four human donors were run in duplicate at baseline and for each of the four E5555 concentrations. As one might have expected, there was donor-to-donor variability in the levels of platelet inhibition measured at a given concentration of E5555. Based on the expected levels of inhibition at each concentration of E5555 provided, the actual results were on average slightly lower than expected across the four donors.

[2] = system: platelets in whole blood activated by PAR-1 thrombin receptor activating peptide (TRAP-1); conditions: expected level of inhibition provided, cited from earlier work
[3] = guinea pig thrombosis model; cited from earlier work
[4] = rat balloon injury model; cited from earlier work
[5] = rabbit subarachnoid hemorrhage model; cited from earlier work
[6] = system: IL-6, CD40 ligand and P-selectin; conditions: human cells; cited from earlier work
PAR-1 thrombin receptor = biological target: T1, PAR-1 thrombin receptor (Homo sapiens, UniProt P25116); conditions: cited from earlier work
T1 sequence (P25116 22-425): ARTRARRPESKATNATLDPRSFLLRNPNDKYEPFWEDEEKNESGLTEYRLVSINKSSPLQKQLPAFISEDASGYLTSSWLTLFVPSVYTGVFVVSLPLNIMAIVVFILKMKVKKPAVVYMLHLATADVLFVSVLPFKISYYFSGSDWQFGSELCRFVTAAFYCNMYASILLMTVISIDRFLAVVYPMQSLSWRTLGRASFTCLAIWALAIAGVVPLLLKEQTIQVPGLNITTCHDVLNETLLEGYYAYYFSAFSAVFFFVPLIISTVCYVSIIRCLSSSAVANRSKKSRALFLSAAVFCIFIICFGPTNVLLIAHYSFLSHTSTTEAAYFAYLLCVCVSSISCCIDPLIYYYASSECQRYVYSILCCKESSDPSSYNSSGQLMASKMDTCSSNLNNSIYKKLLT

[7] = Phase II clinical studies, treated patients; cited from earlier work
platelet aggregation = conditions: blood samples from patients undergoing non-urgent PCI; cited from earlier work
[8] = biological target: T2, platelet thrombin receptors (Homo sapiens, UniProt P25116); conditions: receptors activated by either thrombin or TRAP-1; cited from earlier work
T2 construct: host or cells: platelets
T2 sequence (P25116 22-425): T1 sequence (P25116 22-425)

With `CCOc1cc2c(c(F)c1OCC)C(=N)N(CC(=O)c1cc(N3CCOCC3)c(OC)c(C(C)(C)C)c1)C2` [E5555] the “% Inhibition, Average” value ([1]; 1 ng/ml E5555) was 5%, the “% Inhibition, Average” value ([1]; 5 ng/ml E5555) was 30% and the “% Inhibition, Average” value ([1]; 10 ng/ml E5555) was 57%. The “% Inhibition, Average” value ([1]; 30 ng/ml E5555) was 86%, the “% Inhibition (platelet inhibition relative to baseline)” value ([1]; Donor ID: 60, 1 ng/ml E5555) was 7% and the “% Inhibition (platelet inhibition relative to baseline)” value ([1]; Donor ID: 60, 5 ng/ml E5555) was 17%. For the same compound, the “% Inhibition (platelet inhibition relative to baseline)” value ([1]; Donor ID: 60, 10 ng/ml E5555) was 46%, the “% Inhibition (platelet inhibition relative to baseline)” value ([1]; Donor ID: 60, 30 ng/ml E5555) was 82% and the “% Inhibition (platelet inhibition relative to baseline)” value ([1]; Donor ID: 75, 1 ng/ml E5555) was −1%. For the same compound, the “% Inhibition (platelet inhibition relative to baseline)” value ([1]; Donor ID: 75, 5 ng/ml E5555) was 15%, the “% Inhibition (platelet inhibition relative to baseline)” value ([1]; Donor ID: 75, 10 ng/ml E5555) was 39% and the “% Inhibition (platelet inhibition relative to baseline)” value ([1]; Donor ID: 75, 30 ng/ml E5555) was 78%. The “% Inhibition (platelet inhibition relative to baseline)” value ([1]; Donor ID: 126, 1 ng/ml E5555) was 5%, the “% Inhibition (platelet inhibition relative to baseline)” value ([1]; Donor ID: 126, 5 ng/ml E5555) was 51% and the “% Inhibition (platelet inhibition relative to baseline)” value ([1]; Donor ID: 126, 10 ng/ml E5555) was 77%. The “% Inhibition (platelet inhibition relative to baseline)” value ([1]; Donor ID: 126, 30 ng/ml E5555) was 97%, the “% Inhibition (platelet inhibition relative to baseline)” value ([1]; Donor ID: 137, 1 ng/ml E5555) was 7% and the “% Inhibition (platelet inhibition relative to baseline)” value ([1]; Donor ID: 137, 5 ng/ml E5555) was 35%. For the same compound, the “% Inhibition (platelet inhibition relative to baseline)” value ([1]; Donor ID: 137, 10 ng/ml E5555) was 66%, the “% Inhibition (platelet inhibition relative to baseline)” value ([1]; Donor ID: 137, 30 ng/ml E5555) was 88% and the “% Inhibition, Expected” value ([2]; 1 ng/ml E5555) was 10-50%. The “% Inhibition, Expected” value ([2]; 5 ng/ml E5555) was 40-80%, the “% Inhibition, Expected” value ([2]; 10 ng/ml E5555) was 70-100% and the “% Inhibition, Expected” value ([2]; 30 ng/ml E5555) was 100%. The anti-thrombotic effect [3] was “anti-thrombotic effect”, the “effect on neointima hyperplasia” value [4] was “inhibitory effects” and the “effect on thrombin-induced contractile response” value [5] was “inhibitory effects”. The “effect on thrombin-induced release or expression of inflammatory markers (IL-6, CD40 ligand, P-selectin)” value [6] was “inhibitory effects”.
In the case of `CCOC(=O)N[C@@H]1CC[C@@H]2[C@@H](C1)C[C@H]1C(=O)O[C@H](C)[C@H]1[C@H]2/C=C/c1ccc(-c2cccc(F)c2)cn1` [SCH 530348], the “inhibition of the PAR-1 thrombin receptor” value (PAR-1 thrombin receptor) is given as “potent inhibitor”, the “bleeding time and coagulation times” value [7] is given as “no increase in bleeding time or prolongation in coagulation times” and the “inhibition of platelet aggregation” value (platelet aggregation) is given as “sustained, dose-dependent, specific agonist-induced inhibition of platelet aggregation”.
For “Phe-Leu-Leu-Arg-Asn (FLLRN; printed: Phe-Leu-Leu-Arg-Asn) [truncated TRAP-1 pentapeptide]”, the “antagonism of platelet thrombin receptors” value [8] is listed as “weak antagonist”.
